Earlier results as cited in patent publication US20020165233A1, “Quinoxaline containing medicaments for post exposure prophylaxis of an HIV infection” (priority 1999, published 2002).

Columns and labels:
[1] = test system: SIV; conditions: administration 48 h before, 4 h after and 24 h after virus inoculation for 4 weeks; observed 56 weeks; cited from earlier work
[2] = test system: RT-SHIV; conditions: RT-SHIV infected rhesus monkeys; cited from earlier work
[3] = test system: HIV; conditions: cited from earlier work
[4] = test system: HIV; conditions: prophylaxis with only zidovudine; case-control study; cited from earlier work
[5] = test system: HIV-1; conditions: inhibitor given 1 hr before challenge, continued 20-30 weeks post challenge; cited from earlier work

For `C[C@H](Cn1cnc2c(N)ncnc21)OCP(=O)(O)O` [PMPA], the “protection against SIV infection” value [1] is listed as “full protection” and the “effect of post exposure prophylaxis (PEP)” value [2] is listed as “vaccination effect protecting the animals against wild-type challenge”.
For `Cc1cn([C@H]2C[C@H](N=[N+]=[N-])[C@@H](CO)O2)c(=O)[nH]c1=O` [zidovudine], the “suppression (change in viremia)” value ([3]; after 7 days of treatment at 1000 mg per day (Loveday et al)) is given as 1 log, the mean initial suppression ([3]; conventionally used antiviral agents given alone) is given as no more than 1 log and the “protective effect of prophylaxis” value [4] is given as 80%.
For `CCc1cc(CCc2nc3ccccc3o2)c(=O)[nH]c1C` [L-696,229], the “outcome of prophylaxis in treated animals” value [5] is given as “developed delayed infections”.
